For experiment [1], the target named is Casein kinase 1 delta (CSKN1D) (Homo sapiens, UniProt P48730). The experiment is described as follows: Casein kinase assay, CK1 delta. The following applies: recombinant CSKN1D 5 nM, ATP 10 μM. It counts as biochemical. On the procedure:
(§1) The recombinant protein Casein kinase 1 delta (CSKN1D) was added to the substrate solution in a concentration of 5 nM and gently mixed. Dilution series in of compounds of the present invention in DMSO were added to the reaction mixture, followed after 20 min by addition of a mixture of ATP and ^33P-ATP (specific activity 0.01 μCi/μl final) to a final concentration of 10 μM. Reactions were carried out at 25° C. for 120 min, followed by spotting the reactions onto P81 ion exchange filter paper. Unbound phosphate was removed by washing of the filters in 0.75% phosphoric acid. […] IC50 values and curve fits were obtained using the program Prism® (Graph Pad Software).

Experiment [2] has as its target Casein kinase 1 epsilon (CSKN1E) (Homo sapiens, UniProt P49674). As to the kind of experiment: Casein kinase assay, CK1 epsilon. The class given is biochemical. The conditions noted are these: recombinant CSKN1E 30 nM, ATP 10 μM. On the procedure: as §1
The above assay was also used to determine the inhibitory capacity of the compounds of the present invention on Casein Kinase 1 epsilon, wherein instead of CSKN1D, recombinant protein Casein kinase 1 epsilon (CSKN1E) was added to the substrate solution in a concentration of 30 nM and gently mixed.

The IC50 is the concentration that gives 50% inhibition.

Casein kinase 1 delta (CSKN1D), sequence (P48730 whole entry): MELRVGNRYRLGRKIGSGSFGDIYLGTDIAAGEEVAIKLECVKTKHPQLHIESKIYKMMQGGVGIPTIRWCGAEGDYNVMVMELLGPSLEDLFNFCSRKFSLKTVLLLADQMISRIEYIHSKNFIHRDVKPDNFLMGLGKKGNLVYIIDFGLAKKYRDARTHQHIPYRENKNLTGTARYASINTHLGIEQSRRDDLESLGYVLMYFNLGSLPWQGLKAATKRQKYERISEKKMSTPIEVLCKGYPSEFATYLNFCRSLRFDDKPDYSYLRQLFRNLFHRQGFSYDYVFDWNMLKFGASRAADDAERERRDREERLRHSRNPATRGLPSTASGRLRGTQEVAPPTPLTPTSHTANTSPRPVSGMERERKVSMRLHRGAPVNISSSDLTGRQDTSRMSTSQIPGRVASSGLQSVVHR
Casein kinase 1 epsilon (CSKN1E), sequence (P49674 whole entry): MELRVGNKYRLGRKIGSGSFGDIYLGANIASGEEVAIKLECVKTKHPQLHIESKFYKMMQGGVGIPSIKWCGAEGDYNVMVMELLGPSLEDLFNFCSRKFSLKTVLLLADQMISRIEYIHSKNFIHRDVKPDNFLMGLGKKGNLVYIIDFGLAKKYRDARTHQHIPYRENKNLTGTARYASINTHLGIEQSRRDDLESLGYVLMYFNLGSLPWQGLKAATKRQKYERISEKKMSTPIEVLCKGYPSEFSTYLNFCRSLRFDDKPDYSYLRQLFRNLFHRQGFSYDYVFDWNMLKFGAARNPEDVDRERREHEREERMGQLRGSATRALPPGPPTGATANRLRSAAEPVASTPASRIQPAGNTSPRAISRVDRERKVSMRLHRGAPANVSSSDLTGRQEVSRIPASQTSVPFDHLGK

In the case of `O=C(Cc1cccc(Cl)c1)Nc1nc2cc3c(cc2[nH]1)OC(F)(F)O3` [Compound 8B, 2-(3-chlorophenyl)-N-(2,2-difluoro-5H-[1,3]dioxolo[4′,5′:4,5]benzo[1,2-d]imidazol-6-yl)acetamide], the half-inhibitory concentration (IC50) in experiment [1] and in experiment [2] was under 200 nM each time.
Consider `O=C(/C=C/c1ccccc1)Nc1nc(C(=O)Nc2nc3cc4c(cc3[nH]2)OC(F)(F)O4)co1` [Compound 9, 2-cinnamamido-N-(2,2-difluoro-5H-[1,3]dioxolo[4′,5′:4,5]benzo[1,2-d]imidazol-6-yl)oxazole-4-carboxamide], for which the IC50 in experiment [1] and in experiment [2] was over 1000 nM each time.
`O=C(Nc1nc2cc3c(cc2[nH]1)OC(F)(F)O3)c1coc(NC(=O)c2ccco2)n1` [Compound 10, N-(2,2-difluoro-5H-[1,3]dioxolo[4′,5′:4,5]benzo[1,2-d]imidazol-6-yl)-2-(furan-2-carboxamido)oxazole-4-carboxamide]: the IC50 in experiment [1] is 200 to 1000 nM; in experiment [2], over 1000 nM.
The like results for `O=C(Nc1nc2cc3c(cc2[nH]1)OC(F)(F)O3)c1csc(NC(=O)c2ccco2)n1` [Compound 11, N-(2,2-difluoro-5H-[1,3]dioxolo[4′,5′:4,5]benzo[1,2-d]imidazol-6-yl)-2-(furan-2-carboxamido)thiazole-4-carboxamide] were, in that order, under 200 nM and under 200 nM.
Regarding `COc1ccccc1C(=O)Nc1nc(C(=O)Nc2nc3cc4c(cc3[nH]2)OC(F)(F)O4)co1` [Compound 12, N-(2,2-difluoro-5H-[1,3]dioxolo[4′,5′:4,5]benzo[1,2-d]imidazol-6-yl)-2-(2-methoxybenzamido)oxazole-4-carboxamide], the 50% inhibitory concentration (IC50) is 200 to 1000 nM in experiment [1] and over 1000 nM in experiment [2].
In the same order, the values of `Cc1nn(-c2ccc(Cl)c(Cl)c2)c(C)c1C(=O)Nc1nc2cc3c(cc2[nH]1)OC(F)(F)O3` [Compound 14, 1-(3,4-dichlorophenyl)-N-(2,2-difluoro-5H-[1,3]dioxolo[4′,5′:4,5]benzo[1,2-d]imidazol-6-yl)-3,5-dimethyl-1H-pyrazole-4-carboxamide] are over 1000 nM and over 1000 nM.
`Cc1nn(-c2ccccc2)c(C)c1C(=O)Nc1nc2cc3c(cc2[nH]1)OC(F)(F)O3` [Compound 15, N-(2,2-difluoro-5H-[1,3]dioxolo[4′,5′:4,5]benzo[1,2-d]imidazol-6-yl)-3,5-dimethyl-1-phenyl-1H-pyrazole-4-carboxamide]: the concentration for half-maximal inhibition (IC50) in experiment [1] and in experiment [2] was over 1000 nM each time.
For `Nc1c[nH]c(C(=O)Nc2nc3cc4c(cc3[nH]2)OC(F)(F)O4)c1` [Compound 15B, 4-Amino-N-(2,2-difluoro-5H-[1,3]dioxolo[4′,5′:4,5]benzo[1,2-d]imidazol-6-yl)-1H-pyrrole-2-carboxamide], the results for the IC50 in experiment [1] and in experiment [2] were under 200 nM and 200 to 1000 nM, respectively.
In the same order, the values of `O=C(Nc1nc2cc3c(cc2[nH]1)OC(F)(F)O3)c1cn(-c2ccccc2)nc1C(F)(F)F` [Compound 16, N-(2,2-difluoro-5H-[1,3]dioxolo[4′,5′:4,5]benzo[1,2-d]imidazol-6-yl)-1-phenyl-3-(trifluoromethyl)-1H-pyrazole-4-carboxamide] are 200 to 1000 nM and 200 to 1000 nM.
Regarding `O=C(Nc1nc2cc3c(cc2[nH]1)OC(F)(F)O3)c1nsc(NC(=O)c2ccccc2OC(F)(F)F)n1` [Compound 17, N-(2,2-difluoro-5H-[1,3]dioxolo[4′,5′:4,5]benzo[1,2-d]imidazol-6-yl)-5-(2-(trifluoromethoxy)benzamido)-1,2,4-thiadiazole-3-carboxamide], the half-inhibitory concentration (IC50) in experiment [1] and in experiment [2] was under 200 nM each time.
For the compound `O=C(Nc1nc2cc3c(cc2[nH]1)OC(F)(F)O3)c1csc(-c2cccc(Cl)c2)n1` [Compound 17B, 2-(3-chlorophenyl)-N-(2,2-difluoro-5H-[1,3]dioxolo[4′,5′:4,5]benzo[1,2-d]imidazol-6-yl)thiazole-4-carboxamide], the IC50 in experiment [1] was under 200 nM; in experiment [2] it was 200 to 1000 nM.
The like results for `O=C(Nc1nc2cc3c(cc2[nH]1)OC(F)(F)O3)c1ccncc1` [Compound 18, N-(2,2-difluoro-5H-[1,3]dioxolo[4′,5′:4,5]benzo[1,2-d]imidazol-6-yl)isonicotinamide] were, in that order, under 200 nM and 200 to 1000 nM.
Regarding `O=C(O)c1cccc(C(=O)Nc2nc3cc4c(cc3[nH]2)OC(F)(F)O4)c1` [Compound 18B, 3-((2,2-Difluoro-5H-[1,3]dioxolo[4′,5′:4,5]benzo[1,2-d]imidazol-6-yl)carbamoyl)benzoic acid], the IC50 in experiment [1] and in experiment [2] was 200 to 1000 nM throughout.
For the compound `COc1ccc(OC)c(S(=O)(=O)Nc2nc(C(=O)Nc3nc4cc5c(cc4[nH]3)OC(F)(F)O5)cs2)c1` [Compound 19, N-(2,2-difluoro-5H-[1,3]dioxolo[4′,5′:4,5]benzo[1,2-d]imidazol-6-yl)-2-(2,5-dimethoxyphenylsulfonamido)thiazole-4-carboxamide], the IC50 in experiment [1] and in experiment [2] was under 200 nM in each case.
Turning to `O=C(Nc1nc2cc3c(cc2[nH]1)OC(F)(F)O3)c1ccsc1` [Compound 20, N-(2,2-difluoro-5H-[1,3]dioxolo[4′,5′:4,5]benzo[1,2-d]imidazol-6-yl)thiophene-3-carboxamide], the figures for the half-maximal inhibitory concentration (IC50) in experiment [1] and in experiment [2] were under 200 nM and 200 to 1000 nM, respectively.
Turning to `Cn1cccc1C(=O)Nc1nc2cc3c(cc2[nH]1)OC(F)(F)O3` [Compound 20B, N-(2,2-Difluoro-5H-[1,3]dioxolo[4′,5′:4,5]benzo[1,2-d]imidazol-6-yl)-1-methyl-1H-pyrrole-2-carboxamide], the figures for the IC50 in experiment [1] and in experiment [2] were 200 to 1000 nM and over 1000 nM, respectively.
As for `O=C(Nc1nc(C(=O)Nc2nc3cc4c(cc3[nH]2)OC(F)(F)O4)cs1)c1ccncc1` [Compound 21, N-(2,2-difluoro-5H-[1,3]dioxolo[4′,5′:4,5]benzo[1,2-d]imidazol-6-yl)-2-(isonicotinamido)thiazole-4-carboxamide], the concentration for half-maximal inhibition (IC50) in experiment [1] and in experiment [2] was under 200 nM throughout.
Regarding `Nc1ncc(Br)nc1C(=O)Nc1nc2cc3c(cc2[nH]1)OC(F)(F)O3` [Compound 22, 2-amino-6-bromo-N-(2,2-difluoro-5H-[1,3]dioxolo[4′,5′:4,5]benzo[1,2-d]imidazol-6-yl)pyrazine-2-carboxamide], the values for the IC50 in experiment [1] and in experiment [2] were 200 to 1000 nM and over 1000 nM, respectively.
In the same order, the values of `O=C(Nc1nc2cc3c(cc2[nH]1)OC(F)(F)O3)c1csc(Nc2ccc(OC(F)(F)F)cc2)n1` [Compound 23, N-(2,2-difluoro-5H-[1,3]dioxolo[4′,5′:4,5]benzo[1,2-d]imidazol-6-yl)-2-((4-(trifluoromethoxy)phenyl)amino)thiazole-4-carboxamide] are over 1000 nM and over 1000 nM.
With `O=C(Nc1nc2cc3c(cc2[nH]1)OC(F)(F)O3)c1coc(N2CCOCC2)n1` [Compound 24, N-(2,2-difluoro-5H-[1,3]dioxolo[4′,5′:4,5]benzo[1,2-d]imidazol-6-yl)-2-morpholinooxazole-4-carboxamide], the 50% inhibitory concentration (IC50) in experiment [1] and in experiment [2] was 200 to 1000 nM each time.
As to `Cc1cc(C(F)(F)F)nc(Nc2nc(C(=O)Nc3nc4cc5c(cc4[nH]3)OC(F)(F)O5)cs2)n1` [Compound 25, N-(2,2-difluoro-5H-[1,3]dioxolo[4′,5′:4,5]benzo[1,2-d]imidazol-6-yl)-2-((4-methyl-6-(trifluoromethyl)pyrimidin-2-yl)amino)thiazole-4-carboxamide], the half-inhibitory concentration (IC50) in experiment [1] and in experiment [2] was over 1000 nM throughout.
Take `O=C(Nc1nc(C(=O)Nc2nc3cc4c(cc3[nH]2)OC(F)(F)O4)cs1)Nc1ccccc1OC(F)(F)F` [Compound 26, N-(2,2-difluoro-5H-[1,3]dioxolo[4′,5′:4,5]benzo[1,2-d]imidazol-6-yl)-2-(3-(2-(trifluoromethoxy)phenyl)ureido)thiazole-4-carboxamide]: the IC50 in experiment [1] and in experiment [2] was under 200 nM in each case.
`Cc1cc(C(=O)Nc2nc3cc4c(cc3[nH]2)OC(F)(F)O4)c(C)s1` [Compound 28, N-(2,2-difluoro-5H-[1,3]dioxolo[4′,5′:4,5]benzo[1,2-d]imidazole-6-yl)-2,5-dimethylthiophene-3-carboxamide]: the IC50 in experiment [1] and in experiment [2] was 200 to 1000 nM each time.
In the case of `O=C(Nc1nc2cc3c(cc2[nH]1)OC(F)(F)O3)c1csc(Br)c1` [Compound 29, 5-bromo-N-(2,2-difluoro-5H-[1,3]dioxolo[4′,5′:4,5]benzo[1,2-d]imidazole-6-yl)-thiophene-3-carboxamide], the IC50 in experiment [1] and in experiment [2] was under 200 nM throughout.
As to `O=C(Nc1nc2cc3c(cc2[nH]1)OC(F)(F)O3)c1csc([N+](=O)[O-])c1` [Compound 30, N-(2,2-difluoro-5H-[1,3]dioxolo[4′,5′:4,5]benzo[1,2-d]imidazole-6-yl)-5-nitrothiophene-3-carboxamide], the half-maximal inhibitory concentration (IC50) in experiment [1] and in experiment [2] was under 200 nM in each case.
`O=C(Nc1nc2cc3c(cc2[nH]1)OC(F)(F)O3)c1csc2ccccc12` [Compound 31, N-(2,2-difluoro-5H-[1,3]dioxolo[4′,5′:4,5]benzo[1,2-d]imidazol-6-yl)benzo[b]thiophene-3-carboxamide]: the half-maximal inhibitory concentration (IC50) in experiment [1] is under 200 nM; in experiment [2], 200 to 1000 nM.
In the same order, the values of `O=C(Nc1nc2cc3c(cc2[nH]1)OC(F)(F)O3)c1ccoc1` [Compound 32, N-(2,2-difluoro-5H-[1,3]dioxolo[4′,5′:4,5]benzo[1,2-d]imidazol-6-yl)furan-3-carboxamide] are 200 to 1000 nM and under 200 nM.

The values are drawn from patent US20170240556A1, “BIFLUORODIOXALANE-AMINO-BENZIMIDAZOLE KINASE INHIBITORS FOR THE TREATMENT OF CANCER, AUTOIMMUNEINFLAMMATION AND CNS DISORDERS” (4SC DISCOVERY GMBH, priority 2012, published 2017).
